Reference: US20070128217A1 (priority 2003, published 2007)

Experiments:
[1] = test system: antibodies in sera from SARS patients (sera 1a, 1b, 2, 6, 37, 62, London, SARS-yellow, SARS-green); assay type: binding, human; parameters: Binding of serum 6 to linear peptides of protein X1 of SARS-CoV Urbani / Binding of serum 37 to linear peptides of protein X1 of SARS-CoV Urbani / Binding of serum 6 to looped/cyclic peptide (PEPSCAN-ELISA) / Binding of serum 37 to looped/cyclic peptide (PEPSCAN-ELISA) / Binding of serum 37 to looped/cyclic peptides of protein X1 of SARS-CoV Urbani / Binding of serum 6 to linear peptides of protein X2 / Binding of serum 37 to linear peptides of protein X2 / Binding of serum 37 to looped/cyclic peptides of protein X2 of SARS-CoV Urbani / Binding of serum 6 to linear peptides of protein M of SARS-CoV Urbani / Binding of serum 37 to linear peptides of protein M of SARS-CoV Urbani / Binding of serum 6 to looped/cyclic peptides of protein M of SARS-CoV Urbani / Binding of serum 37 to looped/cyclic peptides of protein M of SARS-CoV Urbani / Binding of serum 6 to linear peptides of protein X3 of SARS-CoV Urbani / Binding of serum 37 to linear peptides of protein X3 of SARS-CoV Urbani / Binding of serum 37 to looped/cyclic peptides of protein X3 of SARS-CoV Urbani / Binding of serum 6 to linear peptides of protein X4 of SARS-CoV Urbani / Binding of serum 37 to linear peptides of protein X4 of SARS-CoV Urbani / Binding of serum 37 to looped/cyclic peptides of protein X4 of SARS-CoV Urbani / Binding of serum 6 to linear peptides of protein X5 of SARS-CoV Urbani / Binding of serum 37 to linear peptides of protein X5 of SARS-CoV Urbani / Binding of serum 37 to looped/cyclic peptides of protein X5 of SARS-CoV Urbani / Binding of serum 6 to linear peptides of protein N of SARS-CoV Urbani / Binding of serum 37 to linear peptides of protein N of SARS-CoV Urbani / Binding of serum 6 to linear peptide (PEPSCAN-ELISA) / Binding of serum 1a to looped/cyclic peptides of protein N of SARS-CoV Urbani / Binding of serum 1b to looped/cyclic peptides of protein N of SARS-CoV Urbani / Binding of serum 2 to looped/cyclic peptides of protein N of SARS-CoV Urbani / Binding of serum 6 to looped/cyclic peptides of protein N of SARS-CoV Urbani / Binding of serum 37 to looped/cyclic peptides of protein N of SARS-CoV Urbani / Binding of serum 62 to looped/cyclic peptides of protein N of SARS-CoV Urbani / Binding of serum London to looped/cyclic peptides of protein N of SARS-CoV Urbani / Binding of serum SARS-green to looped/cyclic peptides of protein N of SARS-CoV Urbani: unit not given here
[2] = test system: control sera (pooled serum of ten healthy LUMC hospital workers; commercial negative donor pooled serum from the Dutch bloodbank); assay type: binding, human; parameters: Binding of Control serum LUMC to linear peptides / Binding of Control serum Blood-bank to linear peptides / Binding of Control serum LUMC to looped peptides / Binding of Control Serum Blood-Bank to Looped peptides / Binding of Control serum LUMC to linear peptides of the protein M of SARS-CoV Urbani / Binding of Control serum Blood-bank to linear peptides of the protein M of SARS-CoV Urbani / Binding of Control serum LUMC to looped peptides of the protein M of SARS-CoV Urbani / Binding of Control Serum Blood-Bank to Looped peptides of the protein M of SARS-CoV Urbani: unit not given here
[3] = test system: rabbit serum obtained by immunizing a rabbit with the SARS-CoV strain Frankfurt 1; assay type: binding; parameters: Binding of a rabbit serum to linear peptides / Binding of a rabbit serum to looped peptides / Rabbit serum linear peptides / Rabbit serum looped peptides / Binding of a rabbit serum to linear peptides of protein N of SARS-CoV Urbani (Rabbit serum linear peptides) / Binding of a rabbit serum to looped/cyclic peptides of protein N of SARS-CoV Urbani (Rabbit serum looped peptides): unit not given here

RIAIWNLDVIISSIV
Binding of serum 1a to linear peptides of protein X3 of SARS-CoV Urbani [1]: 0.7
Binding of serum 1a to looped/cyclic peptides of protein X3 of SARS-CoV Urbani [1]: 0.8
Binding of serum 1b to linear peptides of protein X3 of SARS-CoV Urbani [1]: 0.3
Binding of serum 1b to looped/cyclic peptides of protein X3 of SARS-CoV Urbani [1]: 0.5
Binding of serum 2 to linear peptides of protein X3 of SARS-CoV Urbani [1]: 0.6
Binding of serum 2 to looped/cyclic peptides of protein X3 of SARS-CoV Urbani [1]: 0.8
Binding of serum 6 to linear peptides of protein X3 of SARS-CoV Urbani [1]: 0.5
Binding of serum 6 to looped/cyclic peptides of protein X3 of SARS-CoV Urbani [1]: 0.4
Binding of serum 37 to linear peptides of protein X3 of SARS-CoV Urbani [1]: 0.5
Binding of serum 37 to looped/cyclic peptides of protein X3 of SARS-CoV Urbani [1]: 0.6
Binding of serum 62 to linear peptides of protein X3 of SARS-CoV Urbani [1]: 0.7
Binding of serum 62 to looped/cyclic peptides of protein X3 of SARS-CoV Urbani [1]: 0.7
Binding of serum London to linear peptides of protein X3 of SARS-CoV Urbani [1]: 0.7
Binding of serum London to looped/cyclic peptides of protein X3 of SARS-CoV Urbani [1]: 0.2
Binding of serum SARS-green to linear peptides of protein X3 of SARS-CoV Urbani [1]: 0.3
Binding of serum SARS-green to looped/cyclic peptides of protein X3 of SARS-CoV Urbani [1]: 0.3
Binding of serum SARS-yellow to linear peptides of protein X3 of SARS-CoV Urbani [1]: 0.4
Binding of serum SARS-yellow to looped/cyclic peptides of protein X3 of SARS-CoV Urbani [1]: 1.0
Binding of Control Serum Blood-Bank to Looped peptides of the protein X3 of SARS-CoV Urbani [2]: 0.9
Binding of Control serum Blood-bank to linear peptides of the protein X3 of SARS-CoV Urbani [2]: 0.7
Binding of Control serum LUMC to linear peptides of the protein X3 of SARS-CoV Urbani [2]: 0.6
Binding of Control serum LUMC to looped peptides of the protein X3 of SARS-CoV Urbani [2]: 0.8
Rabbit serum linear peptides [3]: 0.3
Rabbit serum looped peptides [3]: 0.4

SFRLFARTRSMWSFN
Binding of serum 1a to linear peptides of protein M of SARS-CoV Urbani [1]: 0.8
Binding of serum 1a to looped/cyclic peptides of protein M of SARS-CoV Urbani [1]: 0.6
Binding of serum 1b to linear peptides of protein M of SARS-CoV Urbani [1]: 0.7
Binding of serum 1b to looped/cyclic peptides of protein M of SARS-CoV Urbani [1]: 0.5
Binding of serum 2 to linear peptides of protein M of SARS-CoV Urbani [1]: 0.5
Binding of serum 2 to looped/cyclic peptides of protein M of SARS-CoV Urbani [1]: 0.5
Binding of serum 6 to linear peptides of protein M of SARS-CoV Urbani [1]: 0.2
Binding of serum 6 to looped/cyclic peptides of protein M of SARS-CoV Urbani [1]: 0.8
Binding of serum 37 to linear peptides of protein M of SARS-CoV Urbani [1]: 0.8
Binding of serum 37 to looped/cyclic peptides of protein M of SARS-CoV Urbani [1]: 0.6
Binding of serum 62 to linear peptides of protein M of SARS-CoV Urbani [1]: 0.7
Binding of serum 62 to looped/cyclic peptides of protein M of SARS-CoV Urbani [1]: 0.6
Binding of serum London to linear peptides of protein M of SARS-CoV Urbani [1]: 0.3
Binding of serum London to looped/cyclic peptides of protein M of SARS-CoV Urbani [1]: 0.2
Binding of serum SARS-green to linear peptides of protein M of SARS-CoV Urbani [1]: 0.4
Binding of serum SARS-green to looped/cyclic peptides of protein M of SARS-CoV Urbani [1]: 0.3
Binding of serum SARS-yellow to linear peptides of protein M of SARS-CoV Urbani [1]: 0.1
Binding of serum SARS-yellow to looped/cyclic peptides of protein M of SARS-CoV Urbani [1]: 0.5
Binding of Control Serum Blood-Bank to Looped peptides of the protein M of SARS-CoV Urbani [2]: 0.7
Binding of Control serum Blood-bank to linear peptides of the protein M of SARS-CoV Urbani [2]: 0.6
Binding of Control serum LUMC to linear peptides of the protein M of SARS-CoV Urbani [2]: 0.4
Binding of Control serum LUMC to looped peptides of the protein M of SARS-CoV Urbani [2]: 0.6
Rabbit serum linear peptides [3]: 0.8
Rabbit serum looped peptides [3]: 0.2

DYVVVHGYFTEVYYQ
Binding of serum 1a to linear peptides of protein X1 of SARS-CoV Urbani [1]: 0.6
Binding of serum 1a to looped/cyclic peptides of protein X1 of SARS-CoV Urbani [1]: 0.6
Binding of serum 1b to linear peptides of protein X1 of SARS-CoV Urbani [1]: 0.5
Binding of serum 1b to looped/cyclic peptides of protein X1 of SARS-CoV Urbani [1]: 0.5
Binding of serum 2 to linear peptides of protein X1 of SARS-CoV Urbani [1]: 0.4
Binding of serum 2 to looped/cyclic peptides of protein X1 of SARS-CoV Urbani [1]: 0.5
Binding of serum 6 to linear peptides of protein X1 of SARS-CoV Urbani [1]: 0.4
Binding of serum 6 to looped/cyclic peptides of protein X1 of SARS-CoV Urbani [1]: 0.3
Binding of serum 37 to linear peptides of protein X1 of SARS-CoV Urbani [1]: 0.6
Binding of serum 37 to looped/cyclic peptides of protein X1 of SARS-CoV Urbani [1]: 0.7
Binding of serum 62 to linear peptides of protein X1 of SARS-CoV Urbani [1]: 0.4
Binding of serum 62 to looped/cyclic peptides of protein X1 of SARS-CoV Urbani [1]: 0.7
Binding of serum London to linear peptides of protein X1 of SARS-CoV Urbani [1]: 0.2
Binding of serum London to looped/cyclic peptides of protein X1 of SARS-CoV Urbani [1]: 0.2
Binding of serum SARS-green to linear peptides of protein X1 of SARS-CoV Urbani [1]: 0.3
Binding of serum SARS-green to looped/cyclic peptides of protein X1 of SARS-CoV Urbani [1]: 0.3
Binding of serum SARS-yellow to linear peptides of protein X1 of SARS-CoV Urbani [1]: 0.3
Binding of serum SARS-yellow to looped/cyclic peptides of protein X1 of SARS-CoV Urbani [1]: 0.5
Binding of Control Serum Blood-Bank to Looped peptides [2]: 0.5
Binding of Control serum Blood-bank to linear peptides [2]: 0.5
Binding of Control serum LUMC to linear peptides [2]: 0.7
Binding of Control serum LUMC to looped peptides [2]: 0.7
Binding of a rabbit serum to linear peptides [3]: 0.1
Binding of a rabbit serum to looped peptides [3]: 0.6
